According to PubChem BioAssay (NCI):
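In this assay, cells in 96-well plates receive the compound at five concentrations for 48 hours. Endpoints are linearly interpolated between the surrounding concentrations. Here, GI50 denotes the concentration required for 50% inhibition of growth. At the TGI there is no net growth.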

Experiments:
Experiment in all cases: NCI tumour cell line growth inhibition, 48 h
KM20L2 colon = tested on: KM20L2 colon
DLD-1 colon = tested on: DLD-1 colon
HCT-15 colon = tested on: HCT-15 colon
MOLT-4 leukemia = tested on: MOLT-4 leukemia
OVCAR-8 ovarian = tested on: OVCAR-8 ovarian
SK-OV-3 ovarian = tested on: SK-OV-3 ovarian
EKVX NSCLC = tested on: EKVX NSCLC
T-47D breast = tested on: T-47D breast
MCF7 breast = tested on: MCF7 breast
XF 498 CNS = tested on: XF 498 CNS

Compound	TGI (KM20L2 colon) [µM]	TGI (DLD-1 colon) [µM]	TGI (HCT-15 colon) [µM]	TGI (MOLT-4 leukemia) [µM]	TGI (OVCAR-8 ovarian) [µM]	TGI (SK-OV-3 ovarian) [µM]	TGI (EKVX NSCLC) [µM]	GI50 (T-47D breast) [µM]	TGI (T-47D breast) [µM]	GI50 (MCF7 breast) [µM]	TGI (MCF7 breast) [µM]	GI50 (HCT-15 colon) [µM]	GI50 (MOLT-4 leukemia) [µM]	GI50 (OVCAR-8 ovarian) [µM]	GI50 (SK-OV-3 ovarian) [µM]	GI50 (EKVX NSCLC) [µM]	TGI (XF 498 CNS) [µM]
CCOC(=O)NC(=O)c1cn(CCOC(=O)NCCCCCCNC(=O)OCCn2cc(C(=O)NC(=O)OCC)c(=O)[nH]c2=O)c(=O)[nH]c1=O	> 100	> 100	> 100	> 100	> 100	> 100	> 100	–	–	–	–	–	–	–	–	–	–
COc1ccc2[nH]cc(-c3nc(-c4c[nH]c5ncccc45)cs3)c2c1	–	–	> 100	> 100	> 100	> 100	> 100	6.47	> 100	3.33	> 100	2.61	3.13	4.7	4.41	5.79	–
CCN(CC)CCOc1ccc(/C=C2\CC3C4CC=C5C[C@@H](O)CC[C@]5(C)C4CC[C@]3(C)C2=O)cc1OC (stereo partly drawn)	–	–	6.19	> 23.5	3.74	> 58.3	> 52.1	2.79	> 100	9.6	54.5	2.27	2.04	1.92	8.64	9.56	–
Oc1cc(O)c2c(c1)OC(c1ccc(O)c(O)c1)C(OC1(c3cc(O)c(O)c(O)c3)Oc3cc(O)cc(O)c3C(O)C1O)C2 (stereo not drawn)	–	–	> 100	52.8	> 67.7	> 100	41.6	–	> 100	–	40.2	–	–	–	–	–	–
O=C(c1ccc(Cl)cc1)c1cnc(Nc2ccccc2Cl)s1	–	> 100	51.6	> 100	> 71.1	52	50.5	–	47.9	–	86.7	–	–	–	–	–	–
Cc1nc2cnc(N)c(C#Cc3cncc(C(=O)Nc4ccc(CN5CCN(C)CC5)c(C(F)(F)F)c4)c3)c2nc1C	–	–	10.9	18.3	13.8	9.15	12.6	3.35	26	0.161	4.04	0.912	0.859	1.43	1.63	0.739	–
CC1(C)OCCn2c1nc1c(N3CCOCC3)nc(-c3cnc(N)nc3)nc12	–	–	> 100	> 100	11.2	0.495	2.64	0.0325	0.248	0.077	> 100	0.241	0.33	0.404	0.102	0.16	–
Cc1nc2ccccc2nc1-c1ccc(N=[N+]([O-])c2ccc(-c3nc4ccccc4nc3C)cc2)cc1	–	–	> 100	> 100	> 100	> 82.5	> 100	–	> 100	–	> 100	–	–	–	–	–	–
Nc1nc(N)c(N=Nc2ccc([As](=O)(O)O)cc2)c(=O)[nH]1	–	–	> 100	> 100	> 100	> 100	> 100	–	> 100	–	> 100	–	–	–	–	–	–
CCC1C2C=CC(CC2)N1S(=O)(=O)c1ccc(C)cc1 (stereo not drawn)	38.2	–	73.5	> 100	–	89.6	> 100	–	–	–	–	–	–	–	–	–	–
Nc1nccc2c1ccn2-c1ccc(NC(=O)c2ccc(N3CCOCC3)c(C(F)(F)F)c2)cc1	–	–	10.5	–	19.6	23.5	70.2	2.19	19.2	0.316	1.41	0.811	0.318	3.47	2.44	1.69	–
O=C(NC(=O)c1cn(CCNCCO)c(=O)[nH]c1=O)OCc1ccccc1	–	> 100	> 100	> 100	> 100	> 100	> 100	–	–	–	–	–	–	–	–	–	–
CN(C)c1c([O-])c(=[N+](C)C)c1=O	–	–	> 100	> 100	> 100	> 100	> 100	–	–	–	–	–	–	–	–	–	> 100
COc1ccc(NC(=O)/C(N=O)=C(/C)O)cc1	> 100	> 100	36.8	> 100	> 100	> 100	> 100	–	–	–	–	–	–	–	–	–	–
CCN1CCN=c2c3cc(OC)ccc3n3cnc4ccc1c2c43	–	–	0.432	1.57	1.4	1.79	2.33	–	3.06	–	0.993	–	–	–	–	–	–
CCOC(=O)C1(c2ccccc2)CCC(=O)CC1	> 100	> 100	> 100	> 100	> 100	> 100	> 100	–	–	–	–	–	–	–	–	–	–
C[C@H]1NC(=O)C2CCCCN2C(=O)CN(C)C(=O)CNC(=O)C2CCCCN2C(=O)[C@@H](NC(=O)c2nc3ccccc3cc2O)[C@@H](C)NC(=O)C2CCCCN2C(=O)CN(C)C(=O)CNC(=O)[C@@H]2CCCCN2C(=O)C1NC(=O)c1nc2ccccc2cc1O (stereo partly drawn)	10.4	–	> 100	7.03	> 100	> 100	23.2	–	–	–	–	–	–	–	–	–	–
CCN(CC)c1nc(-c2ccc(Cl)cc2Cl)nc2ccccc12	–	–	48.9	> 100	> 100	> 79.9	5.05	18.1	49.6	22.2	> 68	19.3	42.9	31.9	26.5	0.333	–
CCCNC(=S)/N=C/c1c(O)c2ccccc2[nH]c1=O	–	–	> 100	> 100	> 100	> 100	> 100	–	> 100	–	> 100	–	–	–	–	–	–
Cc1[nH]c2ccccc2c1-c1cc(-c2cc(-c3c(C)[nH]c4ccccc34)on2)no1	–	–	> 100	> 100	> 100	> 100	> 100	–	> 100	–	> 100	–	–	–	–	–	–
CC(=O)OC12c3ccccc3-c3ccccc3C1C1C(=O)N(C)C(=O)C12Cl (stereo not drawn)	–	–	> 10	> 10	> 10	> 10	> 10	–	> 10	–	> 10	–	–	–	–	–	–
NS(=O)(=O)c1ccc(N(/C=C/C(=O)C(F)(F)F)CC(=O)c2ccc(Cl)cc2)cc1	–	–	> 100	89.9	> 100	> 100	> 100	63.6	> 100	15.8	49.7	35.5	32.9	43.4	69	54.2	–
